Assay results published in patent US20170154163A1, “CLINICALLY RELEVANT SYNTHETIC LETHALITY BASED METHOD AND SYSTEM FOR CANCER PROGNOSIS AND THERAPY” (Ramot at Tel-Aviv University Ltd., priority 2015, published 2017).
Read-outs that look alike come from different tables or passages of the source.

What was measured:
[1] = tested on: pancreatic cancer cells (Capan-1); experiment: Drug combination with olaparib, Combination Index by Chou-Talalay method (CompuSyn); format: cell-based, human; conditions: CI<0.9 denotes synergism
Method: The experiment was conducted in triplicates.

[2] = tested on: Liv7k cell line (oral cancer); experiment: Drug repurposing screen: growth inhibition of oral cancer cell line under normoxia and hypoxia (nuclei count); format: cell-based; conditions: Homo sapiens; for inhibition at 10 µM: 72 h, read-out: Growth Inhibition (GI)
Method: HPV-negative cell line derived from a T3N2b primary tumor of the tongue. The patient received no chemo/radiotherapy prior to tumor excision. Generously gifted by Professor Richard Shaw (Head and Neck Cancer Consultant, Liverpool, UK). Cells are maintained in keratinocyte SFM (Life Technologies), supplemented with 2 mM L-glutamine, 0.2 ng/ml epidermal growth factor (EGF) and 25 μg/ml bovine pituitary extract (BPE). The cell line was tested from mycoplasma contamination and authenticated by exome sequencing and CNV.
1397 compounds from the NIH Clinical Collection (Evotec, San Francisco, Calif.), LOPAC Pfizer (Sigma Aldrich), the Developmental Therapeutics Program (DTP)-Approved Oncology library and the FDA-Approved Drug Library (Selleck Chemicals) were tested at a single concentration of 10 μM. The libraries were received as 10 mM compounds in dimethyl sulfoxide (DMSO). Plates which conflicted with our plate layout were reformatted. The compounds were first diluted 1:50 in serum free media, and then further diluted 1:20 into to 96 well plates containing 5000 cells in 190 μl of keratinocyte SFM supplemented with 2 mM L-glutamine, 0.2 ng/ml EGF and 25 μg/ml BPE. 0.1% DMSO was used as a negative control, and staurosporine (Sigma Aldrich) at a concentration of 1 μM was used as a positive death control in all plates. Each drug was tested for 72 h under 21% and 0.1% O2. The cells were fixed using 4% formaldehyde after 72 h, and stained with DAPI dilactate (Sigma Aldrich). To assess viability, stained nuclei were counted using Perkin Elmer Operetta High Content Microscope.
An experimental screen was designed for testing whether the clinical SL-network can discriminate between cytotoxic and non-cytotoxic drugs, when considering a wide range of oncology and non-oncology drugs. Transcriptomic profiles of an oral cancer cell line under normoxia and hypoxia were obtained. Based on these profiles the network predicted the cell line response to 139 oncology and 531 non-oncology drugs in each condition. […]

IC50 ([2]; normoxia)	Structure (SMILES)	median Combination Index (CI) [1]	inhibition at 10 µM ([2]; hypoxia (0.1% O2))	inhibition at 10 µM ([2]; normoxia (21% O2))
–	COc1cc([C@@H]2c3cc4c(cc3[C@@H](O[C@@H]3O[C@@H]5CO[C@@H](C)O[C@H]5[C@H](O)[C@H]3O)[C@H]3COC(=O)[C@H]23)OCO4)cc(OC)c1O [Etoposide (VP16), etoposide]	0.718	–	–
–	O=C(CCCCCCC(=O)Nc1ccccc1)NO [VORINOSTAT, vorinostat]	0.551	–	–
5.8 µM	CN(C/C=C/C#CC(C)(C)C)Cc1cccc2ccccc12 [terbinafine]	–	45.2%	81.9%
